Results from patent publication US20110230424A1, “OPHTHALMIC SOLUTIONS, INCLUDING CONTACT LENS CARE AND EYE DROPS COMPRISING CARNOSINE, PREFERABLY IN COMBINATION WITH DEXPANTHENOL AND/OR HYALURONIC ACID” (priority 2008, published 2011).

Key:
[1] = phonophoresis or subconjunctival injection, cited from earlier work
[2] = Stability of carnosine in contact lens care solution; type: physicochemical; conditions: under circumstances; carnosine utilized by bacteria and/or fungi in the solution

stability of carnosine present in the contact lens care solution [2]	SMILES	time within which carnosine accumulates in the aqueous humour after topical administration ([1]; 1% N-acetylcarnosine added to the eye) [min]	effectiveness of carnosine administration in itself to the eye ([1]; quickly metabolised by carnosinase in the eye)
–	CC(=O)NCCC(=O)N[C@@H](Cc1cnc[nH]1)C(=O)O [N-acetylcarnosine, reference compound]	15 to 30	–
less stable than expected	NCCC(=O)N[C@@H](Cc1cnc[nH]1)C(=O)O [carnosine, (2S)-2-[(3-Amino-1-oxopropyl)amino]-3-(3H-imidazol-4-yl)propanoic acid]	–	ineffective
